Source: BindingDB's records for doi:10.3109/14756366.2012.688042 (Ondokuz Mayis University, 2013)

Tests used:
[1] = molecular target: T1, Glutathione reductase, mitochondrial (Homo sapiens, UniProt P00390); assay: Glutathione Reductase Activity Assay; details: pH 8
T1 sequence (P00390 whole entry): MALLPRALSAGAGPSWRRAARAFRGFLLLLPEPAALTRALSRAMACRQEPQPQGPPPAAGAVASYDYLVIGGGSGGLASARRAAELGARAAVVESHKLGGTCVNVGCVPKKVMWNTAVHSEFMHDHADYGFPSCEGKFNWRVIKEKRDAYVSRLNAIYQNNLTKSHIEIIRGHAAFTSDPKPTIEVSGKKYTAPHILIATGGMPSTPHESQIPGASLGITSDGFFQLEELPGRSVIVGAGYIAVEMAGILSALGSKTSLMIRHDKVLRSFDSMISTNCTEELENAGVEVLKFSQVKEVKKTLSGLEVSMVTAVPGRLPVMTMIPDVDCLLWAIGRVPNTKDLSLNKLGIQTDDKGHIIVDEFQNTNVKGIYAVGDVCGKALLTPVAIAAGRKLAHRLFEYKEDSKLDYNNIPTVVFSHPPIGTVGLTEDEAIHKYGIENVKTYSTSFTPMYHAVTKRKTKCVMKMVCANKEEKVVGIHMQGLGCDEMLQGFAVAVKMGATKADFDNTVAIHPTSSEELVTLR
Description: Enzymatic activity was measured by Beutler's method with a Shimadzu Spectrophotometer UV-(1208), at 25°C. The assay system contained 100 mM Tris-HCl buffer pH 8.0, including 0.5 mM EDTA, 3.3 mM GSSG and 0.1 mM NADPH. One enzyme unit is defined as the oxidation of 1 μmol NADPH per min under the assay condition at 25°C.

[2] = molecular target: T2, Microsomal glutathione S-transferase 1 (Homo sapiens, UniProt P10620); assay: Glutathione S-transferase Activity Assay; details: pH 6.5
T2 sequence (P10620 whole entry): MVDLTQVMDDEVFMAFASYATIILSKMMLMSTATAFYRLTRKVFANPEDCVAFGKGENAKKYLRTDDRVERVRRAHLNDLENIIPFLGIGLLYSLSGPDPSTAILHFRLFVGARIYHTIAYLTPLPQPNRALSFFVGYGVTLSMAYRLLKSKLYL
Description: Enzymatic activity was determined spectrophotometrically by measuring the conjugation of CDNB with GSH. The 1 ml assay mixture contained 0.5 mM CDNB, 1 mMGSH, and 100 mM potassium phosphate buffer, pH 6.5. The rate of increase in absorbance at 340 nm was measured for 5 mm at 37°C against a blank containing thereaction mixture without enzyme.

Glutathione peroxidase 1 = molecular target: T3, Glutathione peroxidase 1 (Homo sapiens, UniProt P07203); assay: Glutathione Peroxidase Activity Assay; details: pH 7
T3 sequence (P07203 whole entry): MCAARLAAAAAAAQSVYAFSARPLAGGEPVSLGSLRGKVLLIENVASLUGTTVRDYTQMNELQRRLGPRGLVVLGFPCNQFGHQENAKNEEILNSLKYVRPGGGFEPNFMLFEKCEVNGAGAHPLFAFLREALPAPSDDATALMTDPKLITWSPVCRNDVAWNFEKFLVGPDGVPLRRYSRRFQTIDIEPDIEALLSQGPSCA
Description: Glutathione peroxidase was assayed in a l-ml system containing 0.1 M potassium phosphate buffer, pH 7.0, 0.2 mM NADPH, 1 i.u. glutathione reductase, 4 mM GSH,4 mM EDTA, 4 mM sodium azide. The reaction mixture was incubated at 37°C for 10 min after which 10 μl of 10 mM t-butyl hydroperoxide were added to start the reaction. No t-butyl hydroperoxide was added to the blank cuvette. The rate of reaction was measured at 37°C by following the decrease in the absorbance at 340 nm using a spectrophotometer.

IC50 [1]	Ki [1]	IC50 [2]	Ki [2]	IC50 (Glutathione peroxidase 1)	Ki (Glutathione peroxidase 1)	Structure (SMILES)
18.8 µM	10.4 µM	56.4 µM	32.4 µM	44.3 µM	32.7 µM	CO/N=C(\C(=O)N[C@@H]1C(=O)N2C(C(=O)O)=C(COC(N)=O)CS[C@H]12)c1ccco1 [640/359]
21.3 µM	17.3 µM	61.8 µM	35.4 µM	48.6 µM	34.1 µM	CO/N=C(\C(=O)N[C@@H]1C(=O)N2C(C(=O)O)=C(CSc3nc(=O)c(=O)[nH]n3C)CS[C@H]12)c1csc(N)n1 [(6R,7R)-7-{2-(2-Amino-thiazol-4-yl)-2-[(Z)-methoxyimino]-acetylamino}-3-(2-methyl-5,6-dioxo-1,2,5,6-tetrahydro-[1,2,4]triazin-3-ylsulfanylmethyl)-8-oxo-5-thia-1-aza-bicyclo[4.2.0]oct-2-ene-2-carboxylic acid]
48.4 µM	28.7 µM	484 µM	267 µM	313 µM	245 µM	CCN1CCN(C(=O)N[C@@H](C(=O)N[C@@H]2C(=O)N3C(C(=O)O)=C(CSc4nnnn4C)CS[C@H]23)c2ccc(O)cc2)C(=O)C1=O [CEFOPERAZONE]
39.7 µM	22.8 µM	278 µM	165 µM	186 µM	121 µM	CO/N=C(\C(=O)N[C@@H]1C(=O)N2C(C(=O)O)=CCS[C@H]12)c1csc(N)n1 [Ceftizoxime]
